Measurements from PubChem BioAssay (NCI).
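Exposure lasted 48 hours, with cells grown in 96-well plates and compounds tested at five concentrations. GI50 = concentration required for 50% inhibition of growth. At the TGI there is no net growth.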

Key:
Test in all cases: growth of human tumour cells (NCI), 48 h
[1] = tested on: M14 melanoma
[2] = tested on: SR leukemia
[3] = tested on: CCRF-CEM leukemia
[4] = tested on: SK-OV-3 ovarian
[5] = tested on: NCI-H460 lung
[6] = tested on: ACHN renal
[7] = tested on: UACC-257 melanoma
[8] = tested on: UACC-62 melanoma
[9] = tested on: DU-145 prostate
[10] = tested on: EKVX NSCLC
[11] = tested on: OVCAR-3 ovarian
[12] = tested on: A498 renal
[13] = tested on: LOX IMVI melanoma
[14] = tested on: SNB-75 CNS
[15] = tested on: CAKI-1 renal
[16] = tested on: MDA-MB-231 breast
[17] = tested on: MALME-3M melanoma
[18] = tested on: NCI-H23 lung
[19] = tested on: HOP-92 NSCLC
[20] = tested on: TK-10 renal
[21] = tested on: OVCAR-8 ovarian
[22] = tested on: SNB-19 CNS
[23] = tested on: SK-MEL-2 melanoma
[24] = tested on: SF-295 CNS
[25] = tested on: NCI-H226 lung
[26] = tested on: NCI-H522 lung
[27] = tested on: SN12C renal
[28] = tested on: MCF7 breast
[29] = tested on: PC-3 prostate
[30] = tested on: UO-31 renal
[31] = tested on: IGROV1 ovarian
[32] = tested on: NCI/ADR-RES ovarian
[33] = tested on: SK-MEL-5 melanoma
[34] = tested on: HCT-116 colon
[35] = tested on: KM12 colon
[36] = tested on: COLO 205 colon
[37] = tested on: HT29 colon
[38] = tested on: 786-0 renal
[39] = tested on: K-562 leukemia
[40] = tested on: MOLT-4 leukemia
[41] = tested on: HS 578T breast
[42] = tested on: OVCAR-5 ovarian
[43] = tested on: OVCAR-4 ovarian
[44] = tested on: U251 CNS
[45] = tested on: SK-MEL-28 melanoma
[46] = tested on: RPMI-8226 leukemia
[47] = tested on: SF-539 CNS
[48] = tested on: HCT-15 colon
[49] = tested on: SF-268 CNS
[50] = tested on: HL-60(TB) leukemia
[51] = tested on: T-47D breast
[52] = tested on: BT-549 breast
[53] = tested on: A549 NSCLC
[54] = tested on: RXF 393 renal
[55] = tested on: MDA-MB-435
[56] = tested on: HOP-62 NSCLC
[57] = tested on: SW-620 colon
[58] = tested on: HCC-2998 colon
[59] = tested on: MDA-N

O=C(Nc1ccc(I)cc1F)c1cc(I)ccc1O gave a GI50 [1] of 0.773 µM, a TGI [1] of 3.75 µM and a GI50 [2] of 1.38 µM. It also gave a TGI [2] of over 100 µM, a GI50 [3] of 0.943 µM and a TGI [3] of over 37.6 µM. For the same molecule, the GI50 [4] was 2.56 µM, the TGI [4] was over 100 µM and the GI50 [5] was 0.506 µM. It also gave a TGI [5] of 22.4 µM, a GI50 [6] of 1.69 µM and a TGI [6] of over 100 µM. The GI50 [7] was 0.73 µM, the TGI [7] was 2.6 µM and the GI50 [8] was 0.312 µM. The TGI [8] was 1.22 µM, the GI50 [9] was 0.873 µM and the TGI [9] was over 100 µM. It also gave a GI50 [10] of 0.737 µM, a TGI [10] of 7.17 µM and a GI50 [11] of 0.714 µM. It also gave a TGI [11] of over 100 µM, a GI50 [12] of 0.324 µM and a TGI [12] of 1.24 µM. The GI50 [13] was 0.38 µM, the TGI [13] was 1.67 µM and the GI50 [14] was 0.752 µM. The TGI [14] was 6.75 µM, the GI50 [15] was 0.492 µM and the TGI [15] was 4.11 µM. The GI50 [16] was 0.639 µM, the TGI [16] was 2.64 µM and the GI50 [17] was 0.32 µM. For the same molecule, the TGI [17] was 1.52 µM, the GI50 [18] was 0.531 µM and the TGI [18] was 2.25 µM. It also gave a GI50 [19] of 0.179 µM, a TGI [19] of 0.777 µM and a GI50 [20] of 1.49 µM. It also gave a TGI [20] of over 64.5 µM, a GI50 [21] of 0.802 µM and a TGI [21] of over 100 µM. For the same molecule, the GI50 [22] was 0.664 µM, the TGI [22] was over 100 µM and the GI50 [23] was 0.319 µM. For the same molecule, the TGI [23] was 1.59 µM, the GI50 [24] was 0.8 µM and the TGI [24] was 2.14 µM. It also gave a GI50 [25] of 0.739 µM, a TGI [25] of 6.11 µM and a GI50 [26] of 0.327 µM. The TGI [26] was 21.8 µM, the GI50 [27] was 0.511 µM and the GI50 [28] was 1.55 µM. It also gave a TGI [28] of 9.28 µM, a GI50 [29] of 1.14 µM and a TGI [29] of 9.76 µM. The GI50 [30] was 0.535 µM, the TGI [30] was 2.22 µM and the GI50 [31] was 0.611 µM. It also gave a TGI [31] of over 100 µM, a GI50 [32] of 0.791 µM and a TGI [32] of 3.85 µM. For the same molecule, the GI50 [33] was 0.285 µM, the TGI [33] was 0.807 µM and the GI50 [34] was 0.768 µM. The TGI [34] was 3.35 µM, the GI50 [35] was 1.01 µM and the TGI [35] was 3.85 µM. For the same molecule, the GI50 [36] was 7.17 µM, the TGI [36] was 24 µM and the GI50 [37] was 3.71 µM. It also gave a TGI [37] of over 100 µM, a GI50 [38] of 1.03 µM and a TGI [38] of 9.51 µM. It also gave a GI50 [39] of 0.434 µM, a TGI [39] of over 100 µM and a GI50 [40] of 0.965 µM. It also gave a TGI [40] of 3.5 µM, a GI50 [41] of 0.617 µM and a TGI [41] of 3.95 µM. It also gave a GI50 [42] of 3.05 µM, a TGI [42] of over 100 µM and a GI50 [43] of 0.798 µM. The TGI [43] was over 100 µM, the GI50 [44] was 0.661 µM and the TGI [44] was over 100 µM. The GI50 [45] was 0.435 µM, the TGI [45] was 2.84 µM and the GI50 [46] was 0.375 µM. For the same molecule, the TGI [46] was 1.64 µM, the GI50 [47] was 0.651 µM and the TGI [47] was 16.2 µM. It also gave a GI50 [48] of 0.452 µM, a TGI [48] of 19.7 µM and a GI50 [49] of 0.704 µM. It also gave a TGI [49] of over 100 µM, a GI50 [50] of 0.517 µM and a TGI [50] of 1.66 µM. It also gave a GI50 [51] of 0.649 µM, a TGI [51] of 2.94 µM and a GI50 [52] of 0.548 µM. The TGI [52] was 2.48 µM, the GI50 [53] was 1.15 µM and the TGI [53] was over 100 µM. The GI50 [54] was 0.779 µM, the TGI [54] was 3.24 µM and the GI50 [55] was 0.723 µM. It also gave a TGI [55] of 7.9 µM, a GI50 [56] of 0.815 µM and a TGI [56] of 3.4 µM. The GI50 [57] was 0.866 µM, the TGI [57] was over 36 µM and the GI50 [58] was 2.63 µM. It also gave a TGI [58] of 15.1 µM.
O=C(Nc1cccc(C(F)(F)F)c1)c1cc(Br)cc(Br)c1O gave a TGI [1] of over 10 µM, a TGI [2] of over 10 µM and a TGI [3] of over 10 µM. It also gave a TGI [4] of 9.38 µM, a TGI [5] of over 10 µM and a TGI [6] of 9.29 µM. The TGI [7] was 6.93 µM, the TGI [8] was over 10 µM and the TGI [9] was over 10 µM. It also gave a TGI [10] of 8.06 µM, a TGI [11] of 6.14 µM and a TGI [13] of 4.95 µM. The TGI [59] was over 10 µM, the TGI [14] was over 10 µM and the TGI [15] was 6.6 µM. For the same molecule, the TGI [16] was over 10 µM, the TGI [18] was 5.27 µM and the TGI [19] was 5.82 µM. It also gave a TGI [20] of 7.38 µM, a TGI [21] of over 10 µM and a TGI [22] of over 10 µM. The TGI [23] was 5.07 µM, the TGI [24] was 7.19 µM and the TGI [25] was 9.42 µM. For the same molecule, the TGI [26] was 9.82 µM, the TGI [27] was over 10 µM and the TGI [28] was over 10 µM. It also gave a TGI [29] of 7.28 µM, a TGI [30] of 8.51 µM and a TGI [31] of over 10 µM. For the same molecule, the TGI [32] was 6.78 µM, the TGI [33] was 3.58 µM and the TGI [34] was 5.44 µM. It also gave a TGI [35] of over 10 µM, a TGI [36] of 9.71 µM and a TGI [37] of over 10 µM. The TGI [38] was over 10 µM, the TGI [39] was 7.18 µM and the TGI [40] was over 10 µM. The TGI [41] was over 10 µM, the TGI [42] was over 10 µM and the TGI [43] was over 10 µM. The TGI [44] was over 10 µM, the TGI [45] was over 10 µM and the TGI [46] was 5.86 µM. It also gave a TGI [47] of 9.15 µM, a TGI [48] of over 10 µM and a TGI [49] of over 10 µM. The TGI [50] was 5 µM, the TGI [51] was 9.69 µM and the TGI [53] was 9.56 µM. The TGI [54] was 9.12 µM, the TGI [55] was over 10 µM and the TGI [56] was over 10 µM. For the same molecule, the TGI [57] was over 10 µM and the TGI [58] was over 10 µM.
